Experimental data published in patent publication US8426449B2, “Aminoalkylphenyl antagonists of prostaglandin D2 receptors” (Panmira Pharmaceuticals, LLC, priority 2008, dated 2013).

biological target: T1, human DP2 receptor (Homo sapiens, UniProt Q9Y5Y4); experiment: DP2/CRTH2 radioligand binding assay using [3H]PGD2; conditions: hDP2 (CRTH2) binding assay, membranes of HEK293 cells expressing recombinant human DP2
T1 construct: expressed in transfected cells
T1 sequence (Q9Y5Y4 1-395): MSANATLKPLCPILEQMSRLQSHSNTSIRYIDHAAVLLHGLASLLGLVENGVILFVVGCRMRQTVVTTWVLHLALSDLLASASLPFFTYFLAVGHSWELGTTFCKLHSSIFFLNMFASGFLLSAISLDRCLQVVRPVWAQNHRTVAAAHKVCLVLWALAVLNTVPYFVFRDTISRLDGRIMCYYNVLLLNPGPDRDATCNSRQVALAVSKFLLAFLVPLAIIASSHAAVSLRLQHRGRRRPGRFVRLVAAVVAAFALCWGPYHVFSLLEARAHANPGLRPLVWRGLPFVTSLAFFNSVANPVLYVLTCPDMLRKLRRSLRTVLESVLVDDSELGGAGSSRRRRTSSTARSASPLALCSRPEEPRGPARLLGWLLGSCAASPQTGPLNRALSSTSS
Description: The ability of a compound to bind to the human DP2 receptor is assessed via a radioligand binding assay using [^3H]PGD2. HEK293 cells stably expressing recombinant human DP2 are resuspended in 10 mM Hepes, 7.4 containing 1 mM DTT, lysed and centrifuged at 75,000×g to pellet the membranes. The membranes are resuspended in 10 mM Hepes, 7.4 containing 1 mM DTT and 10% glycerol to approximately 5 mg protein/ml. Membranes (2-10 μg protein/well) are incubated in 96-well plates with 1 nM [^3H]PGD2 and test compound in Assay Buffer (50 mM Hepes, 10 mM MnCl2, 1 mM EDTA, plus or minus 0.2% human serum albumin, pH 7.4) for 60 minutes at room temperature. The reactions are terminated by rapid filtration through Whatman GF/C glass fibre filter plates. The filter plates were pre-soaked in 0.33% polyethylenimine for 30 minutes at room temperature then washed in Wash Buffer (50 mM Hepes, 0.5 M NaCl pH 7.4) prior to harvesting. After harvesting, the filter plates are washed 3 times with 1 ml cold Wash Buffer then dried. Scintillant is then added to the plates and the radioactivity retained on the filters is determined on a Packard TopCount (Perkin Elmer). Specific binding is determined as total radioactive binding minus non-specific binding in the presence of 10 μM PGD2. IC50s were determined using GraphPad prism analysis of drug titration curves.

Row | Structure (SMILES) | IC50 [nM]
1 | CCN(Cc1cc(C(F)(F)F)ccc1Oc1cccc(CC(=O)O)c1)S(=O)(=O)c1ccc(C)cc1 [Compound 1-27, [3-(2-{[Ethyl-(toluene-4-sulfonyl)-amino]-methyl}-4-trifluoromethyl-phenoxy)-phenyl]-acetic acid] | < 300
2 | CCN(Cc1cc(Br)ccc1Oc1cc(CC(=O)O)ccc1OC)C(C)=O [Compound 1-8, (3-{2-[(Acetyl-ethyl-amino)-methyl]-4-bromo-phenoxy}-4-methoxy-phenyl)-acetic acid] | < 300
3 | CC(=O)N(Cc1cc(Br)ccc1Oc1cccc(CC(=O)O)c1)C(C)(C)Cc1ccc(F)cc1 [Compound 1-2, {3-[2-({Acetyl-[2-(4-fluoro-phenyl)-1,1-dimethyl-ethyl]-amino}-methyl)-4-bromo-phenoxy]-phenyl}-acetic acid] | < 300
4 | C[C@H](NCc1cc(C(F)(F)F)ccc1Oc1cccc(CC(=O)O)c1)[C@H](O)c1ccccc1 [Compound 1-12, (3-{2-[((1S,2R)-2-Hydroxy-1-methyl-2-phenyl-ethylamino)-methyl]-4-trifluoromethyl-phenoxy}-phenyl)-acetic acid] | > 1000
5 | CCN(Cc1cc(NC(=O)C(C)(C)C)ccc1Oc1cc(CC(=O)O)ccc1OC)C(C)=O [Compound 1-45, {3-[2-[(Acetyl-ethyl-amino)-methyl]-4-(2,2-dimethyl-propionylamino)-phenoxy]-4-methoxy-phenyl}-acetic acid] | < 300
6 | CCN(Cc1cc(C(F)(F)F)ccc1Oc1cccc(CC(=O)O)c1)S(=O)(=O)c1ccc(S(C)(=O)=O)cc1 [Compound 1-28, [3-(2-{[Ethyl-(4-methanesulfonyl-benzenesulfonyl)-amino]-methyl}-4-trifluoromethyl-phenoxy)-phenyl]-acetic acid] | > 300
7 | CCN(Cc1cc(NC(=O)c2ccc(Cl)cc2)ccc1Oc1cc(CC(=O)O)ccc1OC)C(C)=O [Compound 1-46, {3-[2-[(Acetyl-ethyl-amino)-methyl]-4-(4-chloro-benzoylamino)-phenoxy]-4-methoxy-phenyl}-acetic acid] | < 300
8 | COC(=O)N(CCc1ccccc1)Cc1cc(Br)ccc1Oc1cccc(CC(=O)O)c1 [Compound 1-4, (3-{4-Bromo-2-[(methoxycarbonyl-phenethyl-amino)-methyl]-phenoxy}-phenyl)-acetic acid] | < 300
9 | COc1ccc(CC(=O)O)cc1Oc1ccc(Br)cc1CN(Cc1ccccc1)C(C)=O [Compound 1-9, (3-{2-[(Acetyl-benzyl-amino)-methyl]-4-bromo-phenoxy}-4-methoxy-phenyl)-acetic acid] | < 300
10 | COc1ccc(CC(=O)O)cc1Oc1ccc(Br)cc1CN[C@H]1c2ccccc2C[C@H]1O [Compound 1-7, (3-{4-Bromo-2-[((1S,2R)-2-hydroxy-indan-1-ylamino)-methyl]-phenoxy}-4-methoxy-phenyl)-acetic acid] | > 1000
11 | CCN(Cc1cc(C(F)(F)F)ccc1Oc1cccc(CC(=O)O)c1)C(=O)Cc1ccccc1 [Compound 1-18, (3-{2-[(Ethyl-phenylacetyl-amino)-methyl]-4-trifluoromethyl-phenoxy}-phenyl)-acetic acid] | > 300
12 | CCN(Cc1cc(NC(=O)c2ccc(Cl)cc2)ccc1Oc1cc(CC(=O)O)ccc1OC)C(=O)C1CC1 [Compound 1-48, (3-{4-(4-Chloro-benzoylamino)-2-[(cyclopropanecarbonyl-ethyl-amino)-methyl]-phenoxy}-4-methoxy-phenyl)-acetic acid] | < 300
13 | COC(=O)N(Cc1ccccc1)Cc1cc(C(F)(F)F)ccc1Oc1cc(CC(=O)O)ccc1OC [Compound 1-37, (3-{2-[(Benzyl-methoxycarbonyl-amino)-methyl]-4-trifluoromethyl-phenoxy}-4-methoxy-phenyl)-acetic acid] | < 300

The remaining lines, values ahead:

Row | IC50 [nM] | Structure (SMILES)
14 | < 300 | CN(Cc1cc(C(F)(F)F)ccc1Oc1cccc(CC(=O)O)c1)S(=O)(=O)c1ccc(Cl)cc1 [Compound 1-23, [3-(2-{[(4-Chloro-benzenesulfonyl)-methyl-amino]-methyl}-4-trifluoromethyl-phenoxy)-phenyl]-acetic acid]
15 | < 300 | CCN(Cc1cc(Br)ccc1Oc1cc(CC(=O)O)ccc1OC)C(=O)OC [Compound 1-10, (3-{4-Bromo-2-[(ethyl-methoxycarbonyl-amino)-methyl]-phenoxy}-4-methoxy-phenyl)-acetic acid]
16 | < 300 | COC(=O)N(Cc1cc(NC(C)=O)ccc1Oc1cccc(CC(=O)O)c1)[C@@H](C)Cc1ccccc1 [Compound 1-38, [3-(4-Acetylamino-2-{[methoxycarbonyl-((S)-1-methyl-2-phenyl-ethyl)-amino]-methyl}-phenoxy)-phenyl]-acetic acid]
17 | < 300 | COC(=O)N(Cc1cc(NS(C)(=O)=O)ccc1Oc1cccc(CC(=O)O)c1)[C@@H](C)Cc1ccccc1 [Compound 1-41, [3-(4-Methanesulfonylamino-2-{[methoxycarbonyl-((S)-1-methyl-2-phenyl-ethyl)amino]-methyl}-phenoxy)-phenyl]-acetic acid]
18 | < 300 | COC(=O)N(Cc1ccccc1)Cc1cc(Br)ccc1Oc1cc(CC(=O)O)ccc1OC [Compound 1-11, (3-{2-[(Benzyl-methoxycarbonyl-amino)-methyl]-4-bromo-phenoxy}-4-methoxy-phenyl)-acetic acid]
19 | > 300 | O=C(O)Cc1cccc(Oc2ccc(C(F)(F)F)cc2CNC(=O)c2ccc(Cl)cc2)c1 [Compound 1-15, (3-{2-[(4-Chloro-benzoylamino)-methyl]-4-trifluoromethyl-phenoxy}-phenyl)-acetic acid]
20 | < 300 | CC(=O)N(Cc1cc(C(F)(F)F)ccc1Oc1cccc(CC(=O)O)c1)C1CCc2ccccc21 (stereo in doubt) [Compound 1-14, (3-{2-[((S)-Acetyl-indan-1-yl-amino)-methyl]-4-trifluoromethyl-phenoxy}-phenyl)-acetic acid]
